“And” between values parts separate entries of the source, which are not always exact repeats. Equal entries are not always repeated.
How the values were obtained:
CaCYP51 Y132F+F145L [1] = target: T1, CaCYP51 Y132F+F145L (Candida albicans, UniProt P10613, F145L/Y132F); assay: CYP51 reconstitution assay; assay type: biochemical; details: for remaining activity at 4 µM: 0.25 h, read-out: Residual CYP51 activity (%) ± SD
T1 construct: made in house; host or cells: E. coli DH5α (pCWori+)
Method: (§1) Azole antifungal agents were added in 2.5 μl dimethyl sulfoxide, followed by 10 min of incubation at 37°C prior to assay initiation with 4 mM β-NADPH-Na4. The samples were then shaken for 15 min at 37°C. Sterol metabolites were recovered by extraction with ethyl acetate, followed by derivatization with 0.1 ml N,O-bis(trimethylsilyl)trifluoroacetamide (BSTFA)–trimethylchlorosilane (TMCS) (99:1) and 0.3 ml anhydrous pyridine (2 h at 80°C), prior to analysis by gas chromatography-mass spectrometry (GC-MS) ([52]). IC50 determinations were performed in duplicate.

CaCYP51 Y132F+F145L [2] = assay: CYP51 reconstitution assay; assay type: biochemical, Candida albicans; details: Y132F+F145L
Method: as §1

CaCYP51 Y132F+K143R [3] = target: T2, CaCYP51 Y132F+K143R (Candida albicans, UniProt P10613, K143R/Y132F); assay: CYP51 reconstitution assay; assay type: biochemical; details: for remaining activity at 4 µM: 0.25 h, read-out: Residual CYP51 activity (%) ± SD
T2 construct: made in house; host or cells: E. coli DH5α (pCWori+)
Method: as §1

CaCYP51 Y132F+K143R [4] = assay: CYP51 reconstitution assay; assay type: biochemical, Candida albicans; details: Y132F+K143R
Method: as §1

CaCYP51 D278N = target: T3, CaCYP51 D278N (Candida albicans, UniProt P10613, D278N); assay: Azole ligand binding (type II difference spectra); details: 4 μM protein, 22°C, ± standard deviation, triplicate, read-out: dissociation constant (Kd)
T3 construct: made in house; host or cells: E. coli DH5α (pCWori+)
Method: (§2) Studies of azole antifungal binding to 4 μM CaCYP51 proteins were performed as previously described ([53]) using quartz split cuvettes with a 4.5-mm light path. […] Azole antifungals were progressively titrated against the CaCYP51 proteins in 0.1 M Tris-HCl (pH 8.1) and 25% glycerol at 22°C, with equivalent volumes of dimethyl sulfoxide also being added to the CYP51-containing compartment of the reference cuvette. The absorbance difference spectra between 500 and 350 nm were determined after each incremental addition of azole, with binding saturation curves constructed from the change in the peak and trough absorbance (ΔApeak-trough) against the azole concentration. The dissociation constant (Kd) of the enzyme-azole complex for each azole was determined by nonlinear regression (Levenberg-Marquardt algorithm) using a rearrangement of the Morrison equation for tight ligand binding ([54], [55]). Tight binding is normally observed when the Kd for a ligand is similar to or lower than the concentration of the enzyme present ([56]). Where ligand binding was weak, the Michaelis-Menten equation was used to fit the data. Each binding determination was performed in triplicate. The chemical structures of the azole antifungals used in this study are shown in Fig. S5 in the supplemental material.

CaCYP51 D278N+G464S = target: T4, CaCYP51 D278N+G464S (Candida albicans, UniProt P10613, D278N/G464S); assay: Azole ligand binding (type II difference spectra)
T4 construct: made in house; host or cells: E. coli DH5α (pCWori+)
Method: as §2

CaCYP51 G307S = target: T5, CaCYP51 G307S (Candida albicans, UniProt P10613, G307S); assay: Azole ligand binding (type II difference spectra); details: 4 μM protein, 22°C, ± standard deviation, triplicate, read-out: dissociation constant (Kd)
T5 construct: made in house; host or cells: E. coli DH5α (pCWori+)
Method: as §2

CaCYP51 G307S+G450E = target: T6, CaCYP51 G307S+G450E (Candida albicans, UniProt P10613, G307S/G450E); assay: Azole ligand binding (type II difference spectra)
T6 construct: made in house; host or cells: E. coli DH5α (pCWori+)
Method: as §2

CaCYP51 K143R = target: T7, CaCYP51 K143R (Candida albicans, UniProt P10613, K143R); assay: Azole ligand binding (type II difference spectra); details: 4 μM protein, 22°C, ± standard deviation, triplicate, read-out: dissociation constant (Kd)
T7 construct: made in house; host or cells: E. coli DH5α (pCWori+)
Method: as §2

CaCYP51 S279F = target: T8, CaCYP51 S279F (Candida albicans, UniProt P10613, S279F); assay: Azole ligand binding (type II difference spectra); details: 4 μM protein, 22°C, ± standard deviation, triplicate, read-out: dissociation constant (Kd)
T8 construct: made in house; host or cells: E. coli DH5α (pCWori+)
Method: as §2

CaCYP51 Y132F+F145L [5] = target: T1, CaCYP51 Y132F+F145L; assay: Azole ligand binding (type II difference spectra)
Method: as §2

CaCYP51 Y132F+K143R [6] = target: T2, CaCYP51 Y132F+K143R; assay: Azole ligand binding (type II difference spectra)
Method: as §2

[7] = system: CaCYP51 proteins with amino acid substitutions; assay: CYP51 reconstitution assay, span over several CaCYP51 proteins; assay type: biochemical, Candida albicans
Method: as §1

[8] = 4 μM protein, 22°C, ± standard deviation, triplicate, read-out: dissociation constant (Kd)

T2 sequence (P10613 whole entry, looked up, stated change not applied): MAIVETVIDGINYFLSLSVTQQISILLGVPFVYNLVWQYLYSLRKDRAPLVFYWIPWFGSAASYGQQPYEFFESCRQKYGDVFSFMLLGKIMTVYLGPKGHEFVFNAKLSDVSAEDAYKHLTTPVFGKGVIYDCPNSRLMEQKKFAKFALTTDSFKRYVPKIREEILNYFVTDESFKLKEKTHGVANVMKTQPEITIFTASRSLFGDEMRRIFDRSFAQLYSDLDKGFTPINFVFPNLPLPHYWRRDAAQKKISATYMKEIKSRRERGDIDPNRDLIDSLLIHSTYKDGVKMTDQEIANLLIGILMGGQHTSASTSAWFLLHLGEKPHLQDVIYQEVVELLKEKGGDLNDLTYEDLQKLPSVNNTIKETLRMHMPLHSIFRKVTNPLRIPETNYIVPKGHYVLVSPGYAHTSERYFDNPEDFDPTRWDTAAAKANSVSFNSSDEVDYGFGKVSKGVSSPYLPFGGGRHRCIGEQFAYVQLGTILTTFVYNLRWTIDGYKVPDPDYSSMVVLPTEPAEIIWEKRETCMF
T1 sequence (P10613 whole entry, looked up, stated change not applied): as above
T4 sequence (P10613 whole entry, looked up, stated change not applied): as above
T6 sequence (P10613 whole entry, looked up, stated change not applied): as above
T3 sequence (P10613 whole entry, looked up, stated change not applied): as above
T7 sequence (P10613 whole entry, looked up, stated change not applied): as above
T5 sequence (P10613 whole entry, looked up, stated change not applied): as above
T8 sequence (P10613 whole entry, looked up, stated change not applied): as above

| Compound | IC50 (CaCYP51 Y132F+F145L [1]) | remaining activity at 4 µM (CaCYP51 Y132F+F145L [1]) | fold increase in IC50 over wild-type enzyme (CaCYP51 Y132F+F145L [2]) | IC50 (CaCYP51 Y132F+K143R [3]) | remaining activity at 4 µM (CaCYP51 Y132F+K143R [3]) | fold increase in IC50 over wild-type enzyme (CaCYP51 Y132F+K143R [4]) | Kd (CaCYP51 D278N) | apparent Kd, fold lower than wild-type enzyme (CaCYP51 D278N+G464S) | Kd (CaCYP51 D278N+G464S; [8]) | Kd (CaCYP51 G307S) | Kd, fold higher than wild-type enzyme (CaCYP51 G307S+G450E) | Kd (CaCYP51 G307S+G450E; [8]) | Kd (CaCYP51 K143R) | Kd (CaCYP51 S279F) | Kd (CaCYP51 Y132F+F145L [5]) | Kd, fold higher than wild-type enzyme (CaCYP51 Y132F+F145L [5]; Y132F+F145L) | Kd (CaCYP51 Y132F+K143R [6]) | Kd, fold larger than wild-type enzyme (CaCYP51 Y132F+K143R [6]; Y132F+K143R) | Residual CYP51 activity, span over proteins ([7]; 4 μM voriconazole, K143R, S279F, G450E, Y132F+K143R, Y132H+K143R, Y132F+F145L, D278N+G464S) | IC50 relative to that of the wild-type enzyme ([7]; none of the substituted CaCYP51 proteins greater than this) |
| --- | --- | --- | --- | --- | --- | --- | --- | --- | --- | --- | --- | --- | --- | --- | --- | --- | --- | --- | --- | --- |
| OC(Cn1cncn1)(Cn1cncn1)c1ccc(F)cc1F [Fluconazole, fluconazole] | 3890 ± 77 nM | 49.1 ± 1.76% | 10 fold and 10.1 fold | 5860 ± 524 nM | 62 ± 1.21% | 15 fold and 15.3 fold | 120 ± 35 nM | 3 fold | 15 ± 9 nM | 133 ± 13 nM | 3 fold | 158 ± 38 nM | 118 ± 24 nM | 232 ± 36 nM | 202 ± 57 nM | 4 fold | 15600 nM | 312 fold | – | – |
| CC[C@@H]([C@H](C)O)n1ncn(-c2ccc(N3CCN(c4ccc(OC[C@@H]5CO[C@@](Cn6cncn6)(c6ccc(F)cc6F)C5)cc4)CC3)cc2)c1=O [Posaconazole, posaconazole] | 433 ± 102 nM | 2.64 ± 0.08% | 2.2 fold | 246 ± 24 nM | 0.86 ± 0.11% | – | – | – | – | – | – | – | – | – | – | – | – | – | – | – |
| C[C@@H](c1ncncc1F)[C@](O)(Cn1cncn1)c1ccc(F)cc1F [Voriconazole, voriconazole] | – | 13.6 ± 0.19% | – | – | 8.86 ± 1.09% | – | – | – | – | – | – | – | – | – | – | – | – | – | over 3% | – |
| CCC(C)n1ncn(-c2ccc(N3CCN(c4ccc(OCC5COC(Cn6cncn6)(c6ccc(Cl)cc6Cl)O5)cc4)CC3)cc2)c1=O (centres unmarked) [Itraconazole, itraconazole] | 364 ± 23 nM | 0.91 ± 0.05% | – | 190 ± 2 nM | 0.23 ± 0.13% | – | – | – | – | – | – | – | – | – | – | – | 127 ± 33 nM | – | – | ≤ 1.6 fold |

Reference: article PMC6496074, “The Evolution of Azole Resistance in Candida albicans Sterol 14α-Demethylase (CYP51) through Incremental Amino Acid Substitutions” (Antimicrobial Agents and Chemotherapy, 2019)
